# Laboratory results as given in US20120258974A1, “USE OF A2B ADENOSINE RECEPTOR ANTAGONISTS FOR TREATING HEART FAILURE AND ARRHYTHMIA IN POST-MYOCARDIAL INFARCTION PATIENTS” (GILEAD SCIENCES, INC., priority 2011, published 2012).
# Key:
# [1] = test system: CD1 mice with experimental AMI (permanent coronary artery ligation); test: Circulating levels of cytokines and soluble adhesion molecules at day 28 (Luminex, Example 4); assay type: in vivo, mouse; details: day 28 after surgery, vs vehicle
# Method: Adult out-bred male CD1 mice (8-12 weeks of age) were supplied by Harlan Sprague Dawley (Indianapolis, Ind.). The experiments were conducted under the guidelines of laboratory animals for biomedical research published by National Institutes of Health (No. 85-23, revised 1996). The study protocol was approved by the Virginia Commonwealth University Institutional Animal Care and Use Committee. Experimental AMI was induced by permanent coronary artery ligation in order to induce a large non-reperfused infarct involving approximately 30% of the left ventricle and leading to an ischemic dilated cardiomyopathy (Mezzaroma et al. Proc Natl Acad Sci 2011—in press and Abbate et al. Circulation 2008; 117:2670-83). Briefly, mice were orotracheally intubated under anesthesia (pentobarbital 50 to 70 mg/kg), placed in the right lateral decubitus position, then subjected to a left thoracotomy, pericardiectomy, and ligation of the proximal left coronary artery. The chest was closed and the animals were allowed to recover. The mice surviving surgery were randomly assigned to the different groups of treatment (N=6-15 per group). Sham operations were performed wherein animals underwent the same surgical procedure without coronary artery ligation (N=4-8 per group).
# The A2B AdoR antagonist, Compound A, was obtained from Gilead Sciences, Foster City, Calif. Mice were randomly assigned to treatment with Compound A (4 mg/kg) or matching dose of vehicle administered intraperitoneally (final volume 0.13 mL) every 12 hours for 14 days starting immediately after coronary artery ligation surgery. An additional group of mice received a lower dose of Compound A (2 mg/kg) to explore a dose-response relationship. Two additional groups of mice received Compound A (4 mg/kg) starting 1 hour after surgery to simulate a clinical scenario of treatment delay. […] To simulate a clinically relevant scenario in which drug treatment may occur with some delay after AMI, this example compared treatment with Compound A without delay with groups in which the A2B AdoR antagonist was given with 1 hour of delay.
# The plasma concentrations of IL-1β and […], Tumor Necrosis Factor-α (TNF-α) and soluble adhesion molecules (E-selectin, Intercellular adhesion molecule-1 [ICAM-1] and vascular cellular adhesion molecule [VCAM]), that are induced by IL-1β, were determined at day 28 after surgery using Luminex kits obtained from Millipore (Billerica, Mass.) according to the manufacturer's instructions. A blood sample was obtained via a direct cardiac puncture immediately prior to killing the animals.
# [2] = test system: rats with MI (25 minutes coronary occlusion followed by reperfusion); test: Plasma biomarkers at 5 week post-MI, rat post-MI model (Example 6); assay type: in vivo
# Method: (§1) The effects of Compound A in a rat model of post-MI remodeling and VT were determined. MI was caused by 25 minutes occlusion at the left anterior descending coronary ligation followed by reperfusion. One week later, rats were administered either vehicle or Compound A (100 mg/kg) once daily by oral gavage. Serial echocardiograms (ECHOs) to measure LV ejection fraction (LVEF), stroke volume and LV end systolic volume (LVESV) were obtained at baseline, 1 week and 5 week post-MI. Electrophysiological studies, optical mapping, histology and biomarker analysis were conducted at 5 week post-MI.
# [3] = test system: male mice with permanent coronary artery ligation; test: Mouse model of myocardial infarction: ECHO, plasma biomarkers, mortality (Example 5); assay type: in vivo
# Method: The effect of Compound A in a mouse model of myocardial infarction was also determined. Male mice underwent permanent coronary artery ligation or sham surgery. Compound A (4 mg/kg) was given i.p. BID starting immediately or 1 hr after the surgery and continued for 14 days. Trans-thoracic ECHO to measure LV end-diastolic/systolic diameter (LVEDD or LVESD), RV end-diastolic area (RVEDA) and myocardial performance index (MPI) was performed prior to surgery and after 7, 14 and 28 days. Analysis of biomarkers of tissue inflammation and injury was conducted on 28 days post-MI.
# [4] = test system: rats with MI (25 minutes coronary occlusion followed by reperfusion); test: Rat model of post-MI remodeling: serial echocardiograms (Example 6); assay type: in vivo
# Method: as §1
# [5] = test system: rats with MI (25 minutes coronary occlusion followed by reperfusion); test: Histology of fibrosis in the infarct border zone, rat post-MI model (Example 6); assay type: in vivo; details: 5 week post-MI; Sirius red; vs vehicle control
# Method: as §1
# Abnormal conduction in the IBZ is due to tissue remodeling. Excessive fibrosis in the IBZ is an important substrate for VT vulnerability.
# [6] = mice with MI, 4 mg/kg i.p. BID starting immediately or 1 hr after the surgery
# [7] = mice with MI, day 28 post-MI, treatment immediately after surgery
smiles,measurement,setting,value
"CCCn1c(=O)c2[nH]c(-c3cnn(Cc4cccc(C(F)(F)F)c4)c3)nc2n(CC)c1=O [Compound A, 3-ethyl-1-propyl-8-(1-(3-(trifluoromethyl)benzyl)-1H-pyrazol-4-yl)-1H-purine-2,6(3H,7H)-dione]",E-selectin plasma level,[1],significantly reduced
same,ICAM-1 plasma level,[1],significantly reduced
same,IL-6 plasma level,[1],significantly reduced
same,TNF-α plasma level,[1],significantly reduced
same,VCAM plasma level,[1],significantly reduced
same,plasma IL-6,[2],significantly reduced
same,plasma PAI-1,[2],significantly reduced
same,increase of plasma BNP,[2]; P=0.16,trend
same,mortality rate (printed: morality rate) of mice with MI during the 4 weeks,"[3]; 4 mg/kg i.p. BID for 14 days, vehicle 42%",25%
same,increase of plasma level of sE-selectin,[3]; mice with MI,significantly inhibited
same,increase of plasma level of sICAM,[3]; mice with MI,significantly inhibited
same,increase of plasma level of sVCAM,[3]; mice with MI,significantly inhibited
same,"LV/RV dimensions (LVEDD, LVESD, RVEDA)",[3]; [6],significantly reduced
same,MPI,[3]; [6],reduced
same,plasma concentration of IL-6,[3]; [7],significantly reduced
same,plasma concentration of ST2,[3]; [7],significantly reduced
same,plasma concentration of TNF-α,[3]; [7],significantly reduced
same,myocardial remodeling/function in sham mice,[3]; sham mice,no effect
same,plasma biomarkers in sham-operated mice,[3]; sham-operated mice,no effect
same,increase in LVESV,[4]; 100 mg/kg once daily oral gavage from 1 week post-MI,significantly reduced
same,LVEF,"[4]; 1 week post-MI (start of dosing), Compound A group",53.1±3.2%
same,LVEF,"[4]; 5 weeks post-MI, 100 mg/kg once daily oral gavage from 1 week post-MI, vehicle 40.7±2.2",55.6±2.6%
same,fibrosis in the IBZ,[5],inhibited
